Assay [1] concerns HL-60. Description: Antiproliferative activity of compound against HL60 leukemia cells. The format is functional, cell-based. To be noted: Homo sapiens.
Assay [2] has as its system Nucleic Acid. As to the kind of experiment: Binding affinity of compound for calf thymus DNA was determined. The format is nucleic-acid assay. The conditions noted are these: Bos taurus.

As a reminder, the IC50 is the point on the concentration scale where inhibition reaches its midpoint. High values mean a need for much substance, low ones inhibition by little substance.

In assay [1], `Cn1cc(NC(=O)c2ccc(CN)cc2)cc1C(=O)Nc1ccc(CN)cc1` yielded a 50% inhibitory concentration (IC50) of 5.4 µM. The same compound gave a Ka in assay [2] of 680000 M⁻¹.

`NCc1ccc(NC(=O)c2cc(NC(=O)c3ccc(CN)cc3)cn2Cc2ccccc2)cc1` yielded an IC50 in assay [1] of 8.2 µM. The compound further showed a Ka in assay [2] of 340000 M⁻¹.

For `NCc1ccc(NC(=O)c2cc(NC(=O)c3ccc(CN)cc3)c[nH]2)cc1`, the concentration for half-maximal inhibition (IC50) in assay [1] is 1.7 µM. The same compound showed a Ka in assay [2] of 950000 M⁻¹.

For the origin of these results see ChEMBL document CHEMBL1133423, “Synthesis, DNA binding, topoisomerases inhibition and cytotoxic properties of 4-arylcarboxamidopyrrolo-2-carboxyanilides” (Bioorg Med Chem Lett, 2000).
